The text below walks through data of patent publication US20020142463A1, “Method for the mass propagation of adventitious roots of ginseng, camphor ginseng and wild ginseng by tissue culture and the improvement of their saponin content” (priority 2001, published 2002).

Assay [1] concerns root tissue of cultivated ginseng, camphor ginseng, and wild ginseng. Kind of assay: Effect of growth regulator pretreatment before culturing on saponin content and saponin ratio. Type of assay: cell-based. The following applies: pretreatment 1-10 hours before culturing at 1-100 mg/L. The procedure:
(§1) The measurement of saponin content was followed by the standard method for the analysis of ginseng constituent of The Korean Ginseng Research Institute.
Among growth regulators, BA(benzyl adenine) 2iP, zeatin, […], TDZ, kinetin which are included in cytokinin groups was treated 1-10 hours before culturing the root tissue of cultivated ginseng, camphor ginseng, and wild ginseng at the concentration of 1-100 mg/L. Immediate after the pretreatment the saponin and the diol:triol content were compared and analyzed.

The subject of assay [2] is adventitious root of wild ginseng. Kind of assay: Effect of added growth regulator on adventitious root propagation (wild ginseng). The format is cell-based. The following applies: MS media, 3% sugar, pH6.0. Further details: unit not given here. The method, then: (§2) After adding 3% of sugar to the MS media and adjusting pH6.0, basal medium were made by adding 1 mg/L, 2 mg/L, 3 mg/L, 5 mg/L of each of the IBA, NAA and BSAA as auxin. These basal mediums were divided into a 1 L flask and a 5 L bioreactor.

Assay [3] concerns adventitious root of cultivated ginseng. Kind of assay: Effect of added growth regulator on adventitious root propagation (cultivated ginseng). Type of assay: cell-based, Panax ginseng C.A. Meyer. Further details: Cultivated ginseng (Increment rate of biomass): unit not given here. The conditions noted are these: for Cultivated ginseng (Increment rate of biomass): MS media, 3% sugar, pH6.0. The procedure:
as §2

Assay [4] has as its system adventitious root of cultivate ginseng, camphor ginseng, wild ginseng. Kind of assay: Effect of jasmonic acid and methyl jasmonic acid treatment on the saponin content of adventitious root in balloon shape bioreactor. Type of assay: cell-based.
Source text: as §1
While culturing the adventitious root of cultivate ginseng, camphor ginseng, wild ginseng in a balloon shape bioreactor, the saponin content in the adventitious root was examined at the initial time, 10 days before harvest, and after harvest with the treatment of various concentrations of jasmonic acid and methyl jasmonic acid.
The experiment was conducted under the conditions of pH 6.0 and the MS media added with 3% sugar and 2.0 mg/L IBA.
The saponin content in the adventitious root was measured for the root treated by various concentrations of jamonic acid or methyl jamonic acid of 0, 1, 2, 5, 10 mg/L 10 days before harvest and the root washed by tap water obtained from the MS media not containing sugar or the treated root by tap water which includes jasmonic acid or methyl jasmonic acid, for one week.

With `CC(C)=CCNc1ncnc2nc[nH]c12` [2iP], the “remarks: effect on the saponin components” value (“remarks: effect” for short) in assay [1] is “zeatin show similar”.
Turning to `c1ccc(CNc2ncnc3nc[nH]c23)cc1` [BA, benzyl adenine], in assay [1], the saponin content amounted to 1.23 and the triol/diol came out at 1.63.
`O=C(O)Cc1c[se]c2ccccc12` [BSAA, benzo [b] selenienyl acetic acid]: the “Wild ginseng (Increment rate of biomass)” value in assay [2] (growth regulator 1 mg/L) came out at 5.0; in assay [2] (growth regulator 2 mg/L), 12.5; in assay [2] (growth regulator 3 mg/L), 11.7; in assay [2] (growth regulator 5 mg/L), 3.9. In addition, the “increment of the biomass (in words)” value in assay [3] (concentration of 2-3 mg/L, text summary of Table 1 (cultivated and wild ginseng)) is “remarkable increment”. Also, the “Cultivated ginseng (Increment rate of biomass)” value (“Cultivated ginseng” for short) stood at 5.3 in assay [3] (growth regulator 1 mg/L), 13.2 in assay [3] (growth regulator 2 mg/L), 11.4 in assay [3] (growth regulator 3 mg/L) and 4.8 in assay [3] (growth regulator 5 mg/L).
Turning to `O=C(O)CCCc1c[nH]c2ccccc12` [IBA], the “Wild ginseng (Increment rate of biomass)” value in assay [2] (growth regulator 1 mg/L) turned out to be 4.3; in assay [2] (growth regulator 2 mg/L), 6.8; in assay [2] (growth regulator 3 mg/L), 5.7; in assay [2] (growth regulator 5 mg/L), 4.2. The “Cultivated ginseng” value in assay [3] (growth regulator 1 mg/L) turned out to be 4.5; in assay [3] (growth regulator 2 mg/L) it was 6.7; in assay [3] (growth regulator 3 mg/L), 6.5; in assay [3] (growth regulator 5 mg/L) it was 3.8.
As for `CC/C=C\C[C@H]1C(=O)CC[C@@H]1CC(=O)O` [Jasmonic acid, jasmonic acid], in assay [4] (jasmonic acid 1 mg/L), the “Ginsenoside content Rb Group” value was found to be 13.29 mg. 1 g drymass, the “Ginsenoside content Rg Group” value is recorded as 2.83 mg. 1 g drymass, the “Ginsenoside content Total content” value is on record as 16.09 mg. 1 g drymass and the Rb/Rg is listed as 4.68. Also, in assay [4] (jasmonic acid 2 mg/L), the “Ginsenoside content Rb Group” value is 24.19 mg. 1 g drymass, the “Ginsenoside content Rg Group” value is 4.46 mg. 1 g drymass, the “Ginsenoside content Total content” value was 28.69 mg. 1 g drymass and the Rb/Rg was 5.45. Also, in assay [4] (jasmonic acid 5 mg/L), the “Ginsenoside content Rb Group” value is given as 34.69 mg. 1 g drymass, the “Ginsenoside content Rg Group” value was 4.15 mg. 1 g drymass, the “Ginsenoside content Total content” value was determined as 38.82 mg. 1 g drymass and the Rb/Rg is 8.43. In addition, in assay [4] (jasmonic acid 10 mg/L), the “Ginsenoside content Rb Group” value amounted to 54.29 mg. 1 g drymass, the “Ginsenoside content Rg Group” value was determined as 5.53 mg. 1 g drymass, the “Ginsenoside content Total content” value turned out to be 59.87 mg. 1 g drymass and the Rb/Rg stood at 9.83.
Consider `O=C(O)Cc1cccc2ccccc12` [NAA, naphthalemeacetic acid], for which the “Wild ginseng (Increment rate of biomass)” value in assay [2] (growth regulator 1 mg/L) was found to be 3.4; in assay [2] (growth regulator 2 mg/L) it was 6.8; in assay [2] (growth regulator 3 mg/L) it was 6.2; in assay [2] (growth regulator 5 mg/L), 3.8. The “Cultivated ginseng” value amounted to 3.2 in assay [3] (growth regulator 1 mg/L), 7.2 in assay [3] (growth regulator 2 mg/L), 6.7 in assay [3] (growth regulator 3 mg/L) and 4.2 in assay [3] (growth regulator 5 mg/L).
On to `O=C(Nc1ccccc1)Nc1cnns1` [TDZ], for which the “remarks: effect” value in assay [1] was “zeatin show similar”.
As to `c1coc(CNc2ncnc3[nH]cnc23)c1` [kinetin], in assay [1], the “remarks: effect” value is reported as “zeatin show similar”.
As to `CC/C=C\CC1C(=O)CCC1CC(=O)OC` (stereo not drawn) [methyl jasmonic acid], in assay [1], the saponin content is 6.50 and the triol/diol was 2.40.
For the compound `C/C(=C\CNc1ncnc2[nH]cnc12)CO` [zeatin], in assay [1], the “remarks: effect” value was “zeatin show similar”.
On to jasmonic acid, for which, in assay [1], the saponin content was 6.50 and the triol/diol was 2.40.
